This experiment addresses T1, human mAChR M4 (Homo sapiens, UniProt P08173).
T1 construct: expressed in transfected cells
T1 sequence (P08173 1-479): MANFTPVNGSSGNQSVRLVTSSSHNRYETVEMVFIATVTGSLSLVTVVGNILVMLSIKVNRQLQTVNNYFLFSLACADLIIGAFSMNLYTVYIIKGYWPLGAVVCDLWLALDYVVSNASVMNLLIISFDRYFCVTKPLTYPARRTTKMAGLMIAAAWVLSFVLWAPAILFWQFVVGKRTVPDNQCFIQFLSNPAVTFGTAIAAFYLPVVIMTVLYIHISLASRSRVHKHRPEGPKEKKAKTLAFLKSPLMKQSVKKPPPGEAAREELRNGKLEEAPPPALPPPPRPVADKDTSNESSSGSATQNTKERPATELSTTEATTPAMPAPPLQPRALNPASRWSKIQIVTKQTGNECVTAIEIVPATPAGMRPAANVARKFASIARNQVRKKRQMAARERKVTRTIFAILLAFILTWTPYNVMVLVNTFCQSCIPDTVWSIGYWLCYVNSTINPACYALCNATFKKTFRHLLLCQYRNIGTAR
Description: mAChR M4 cell-based functional assay (calcium mobilization, CHO-K1 hM4-Gqi5 cells). Particulars: for Emax at 30 µM: CHO-K1, % ACh maximum at 30 μM, human M4; for EC50: increase in the EC20 acetylcholine response, CHO-K1 hM4-Gqi5 cells; for Emax: CHO-K1. In a few lines: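 CHO-K1 cells stably expressing human M4 with chimeric Gqi5, loaded with Fluo-4 AM; compounds given as 11-point 1:3 curves and calcium flux read on FDSS at 1 Hz. Acetylcholine EC20 added at 144 s, EC80 at 230 s; agonist, PAM (EC20 potentiation) and antagonist (EC80 inhibition) EC50/Emax from four-parameter fits.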
(A change in cytosolic calcium serves as a functional read-out for many receptors and channels.)

The mark [1] stands for this setting: positive allosteric modulator activity, read-out: Human M4 EC50.

Each structure is given as a SMILES string. Like-named read-outs stand apart in the source and are kept apart here.

In general, Emax refers to the size of the effect at its maximum, as opposed to the concentration needed. One may read the EC50 as the concentration giving half of the maximal effect.

In the case of `Cc1c(C#N)nnc(N2CCc3ncc(N4CCCn5nccc54)cc3C2)c1C` [Example 342, 6-(3-(6,7-dihydropyrazolo[1,5-a]pyrimidin-4(5H)-yl)-7,8-dihydro-1,6-naphthyridin-6(5H)-yl)-4,5-dimethylpyridazine-3-carbonitrile], the Emax at 30 µM was found to be 86%. Besides, under setting [1], the concentration giving a half-maximal response (EC50) was 64 nM.

As for `Cc1cc(C(=O)NCc2nccs2)cnc1N1CCc2ncc(-c3cn(C)nc3C)cc2C1` [compound 170, 6-[3-(1,3-dimethylpyrazol-4-yl)-7,8-dihydro-5H-1,6-naphthyridin-6-yl]-5-methyl-N-(thiazol-2-ylmethyl)pyridine-3-carboxamide], the maximal response (Emax) at 30 µM worked out at 103%. Also, the concentration giving a half-maximal response (EC50) under setting [1] came to 110 nM.

As for `Cc1cc(F)ncc1-c1cnc2c(c1)CN(c1ncc(C(=O)NCc3nccs3)cc1C)CC2` [compound 174, 6-[3-(6-fluoro-4-methyl-3-pyridyl)-7,8-dihydro-5H-1,6-naphthyridin-6-yl]-5-methyl-N-(thiazol-2-ylmethyl)pyridine-3-carboxamide], the Emax at 30 µM is 98%. For the same compound, the half-maximal effective concentration (EC50) under setting [1] was 75.8 nM.

`Cc1cc(F)c(F)cc1-c1cnc2c(c1)CN(c1nnc(C#N)cc1C)CC2` [Example 596, 6-(3-(4,5-difluoro-2-methylphenyl)-7,8-dihydro-1,6-naphthyridin-6(5H)-yl)-5-methylpyridazine-3-carbonitrile]: the Emax at 30 µM was 54%. The EC50 under setting [1] was determined as 1880 nM.

Take `Cc1c(C(=O)Nc2ccncc2)nnc(N2CCc3ncc(C(F)(F)F)cc3C2)c1C` [Example 466, 4,5-dimethyl-N-(pyridin-4-yl)-6-(3-(trifluoromethyl)-7,8-dihydro-1,6-naphthyridin-6(5H)-yl)pyridazine-3-carboxamide]: the maximal effect (Emax) at 30 µM was 98%. For the same compound, the 50% effective concentration (EC50) under setting [1] is 111 nM.

`Cc1cc(C#N)cnc1N1CCc2ncc(Nc3c(F)cccc3Cl)cc2C1` [compound 111, 6-[3-(2-chloro-6-fluoro-anilino)-7,8-dihydro-5H-1,6-naphthyridin-6-yl]-5-methyl-pyridine-3-carbonitrile]: the Emax at 30 µM is 93%. Moreover, the 50% effective concentration (EC50) under setting [1] was 345 nM.

For the compound `Cc1c(C#N)nnc(N2CCc3ncc(-c4ccnnc4)cc3C2)c1C` [compound 48, 4,5-dimethyl-6-(3-pyridazin-4-yl-7,8-dihydro-5H-1,6-naphthyridin-6-yl)pyridazine-3-carbonitrile], the maximum response (Emax) at 30 µM was found to be 82%. The EC50 under setting [1] turned out to be 1810 nM.

As to `Cc1c(Cl)nc(C2CC2)nc1N1CCc2ncccc2C1` [compound 84, 6-(6-chloro-2-cyclopropyl-5-methyl-pyrimidin-4-yl)-7,8-dihydro-5H-1,6-naphthyridine], the Emax was 71%. For the same compound, the concentration for a half-maximal effect (EC50) under setting [1] was 2240 nM.

Regarding `Cc1cc(C(=O)N2CC(Cl)C2)nnc1N1CCc2ncc(N3CCO[C@H](C)C3)cc2C1` [Example 538, (R)-(3-chloroazetidin-1-yl)(5-methyl-6-(3-(2-methylmorpholino)-7,8-dihydro-1,6-naphthyridin-6(5H)-yl)pyridazin-3-yl)methanone], the Emax at 30 µM was 103%. Further, under setting [1], the EC50 amounted to 54 nM.

For the compound `Cc1nc(C)c(C)c(N2CCc3ncc(Oc4cccc(F)c4F)cc3C2)n1` [compound 261, 3-(2,3-difluorophenoxy)-6-(2,5,6-trimethylpyrimidin-4-yl)-5,6,7,8-tetrahydro-1,6-naphthyridine], the maximal effect (Emax) at 30 µM stood at 72%. Moreover, the concentration for a half-maximal effect (EC50) under setting [1] is 358 nM.

For `[2H]C1([2H])N(c2cnc3c(c2)CN(c2ncc(C#N)cc2C)CC3)c2ccnn2C([2H])([2H])C1([2H])[2H]` [Example 417, 6-(3-(6,7-dihydropyrazolo[1,5-a]pyrimidin-4(5H)-yl-5,5,6,6,7,7-d6)-7,8-dihydro-1,6-naphthyridin-6(5H)-yl)-5-methylnicotinonitrile], the Emax at 30 µM turned out to be 110%. The EC50 under setting [1] amounted to 24 nM.

In the case of `Cc1nc(Cl)nc(N2CCc3ncc(C4CC4)cc3C2)c1C` [compound 254, 6-(2-chloro-5,6-dimethylpyrimidin-4-yl)-3-cyclopropyl-5,6,7,8-tetrahydro-1,6-naphthyridine], the maximal effect (Emax) came out at 95%. Moreover, the EC50 (Human M4 EC50, positive allosteric modulator activity) was 70 nM.

Turning to `Cc1cc(C(=O)NCc2ccncc2)nnc1N1CCc2ncc(C(F)(F)F)cc2C1` [Example 493, 5-methyl-N-(pyridin-4-ylmethyl)-6-(3-(trifluoromethyl)-7,8-dihydro-1,6-naphthyridin-6(5H)-yl)pyridazine-3-carboxamide], the Emax at 30 µM stood at 112%. Besides, the EC50 under setting [1] came out at 37 nM.

Consider `Cc1cc(C(=O)N2CC(C)(O)C2)nnc1N1CCc2ncc(N3CCCn4nccc43)cc2C1` [Example 547, (6-(3-(6,7-dihydropyrazolo[1,5-a]pyrimidin-4(5H)-yl)-7,8-dihydro-1,6-naphthyridin-6(5H)-yl)-5-methylpyridazin-3-yl)(3-hydroxy-3-methylazetidin-1-yl)methanone], for which the Emax at 30 µM is 122%. Moreover, the 50% effective concentration (EC50) under setting [1] stood at 40 nM.

Take `Cc1cc(C(=O)NCCc2ccncc2)cnc1N1CCc2ncccc2C1` [compound 126, 6-(7,8-dihydro-5H-1,6-naphthyridin-6-yl)-5-methyl-N-[2-(4-pyridyl)ethyl]pyridine-3-carboxamide]: the Emax at 30 µM came out at 63%. Moreover, under setting [1], the concentration for a half-maximal effect (EC50) came to 9080 nM.

In the case of `[2H]C1([2H])Cc2ncc(Nc3cccnc3C)cc2C([2H])([2H])N1c1ncc(C#N)cc1C` [Example 602, 5-methyl-6-(3-((2-methylpyridin-3-yl)amino)-7,8-dihydro-1,6-naphthyridin-6(5H)-yl-5,5,7,7-d4)nicotinonitrile], the Emax at 30 µM was found to be 92%. In addition, the 50% effective concentration (EC50) under setting [1] turned out to be 35 nM.

Take `COC(=O)c1ccc(CNC(=O)c2cnc(N3CCc4ncccc4C3)c(C)c2)cn1` [compound 142, methyl 5-[[[6-(7,8-dihydro-5H-1,6-naphthyridin-6-yl)-5-methyl-pyridine-3-carbonyl]amino]methyl]pyridine-2-carboxylate]: the maximal effect (Emax) at 30 µM amounted to 50%. Besides, the half-maximal effective concentration (EC50) under setting [1] is no less than 10000 nM.

With `[2H]C1([2H])Cc2ncc(Nc3cccnc3C)cc2C([2H])([2H])N1c1nnc(C#N)cc1C` [Example 604, 5-methyl-6-(3-((2-methylpyridin-3-yl)amino)-7,8-dihydro-1,6-naphthyridin-6(5H)-yl-5,5,7,7-d4)pyridazine-3-carbonitrile], the maximum response (Emax) at 30 µM is 83%. For the same compound, the concentration for a half-maximal effect (EC50) under setting [1] was 158 nM.

On to `Cc1cc(C(=O)N2CC(C)(C#N)C2)nnc1N1CCc2ncc(N3CCCn4nccc43)cc2C1` [Example 519, 1-(6-(3-(6,7-dihydropyrazolo[1,5-a]pyrimidin-4(5H)-yl)-7,8-dihydro-1,6-naphthyridin-6(5H)-yl)-5-methylpyridazine-3-carbonyl)-3-methylazetidine-3-carbonitrile], for which the Emax at 30 µM worked out at 80%. For the same compound, the EC50 under setting [1] was 14 nM.

As for `Cc1nc(NC2CC2)nc(N2CCc3ncc(Nc4ccnn4C)cc3C2)c1C` [compound 278, 6-(2-(cyclopropylamino)-5,6-dimethylpyrimidin-4-yl)-N-(1-methyl-1H-pyrazol-5-yl)-5,6,7,8-tetrahydro-1,6-naphthyridin-3-amine], the Emax at 30 µM came to 95%. The EC50 under setting [1] stood at 178 nM.

Regarding `Cc1cc(C#N)nnc1N1Cc2cc(N3CCOCC3)cnc2C(C)C1` (single isomer, unassigned) [Example 407, 5-methyl-6-(8-methyl-3-morpholino-7,8-dihydro-1,6-naphthyridin-6(5H)-yl)pyridazine-3-carbonitrile], the maximal response (Emax) at 30 µM came out at 91%. Besides, the EC50 under setting [1] was determined as 611 nM.

On to `[2H]C1([2H])Cc2ncc(-c3ccnn3C)cc2C([2H])([2H])N1c1nnc(C#N)cc1C` [Example 617, 5-methyl-6-(3-(1-methyl-1H-pyrazol-5-yl)-7,8-dihydro-1,6-naphthyridin-6(5H)-yl-5,5,7,7-d4)pyridazine-3-carbonitrile], for which the Emax at 30 µM turned out to be 88%. Moreover, under setting [1], the concentration for a half-maximal effect (EC50) was found to be 2460 nM.

For the compound `Cc1c(Cl)nc(C(F)(F)F)nc1N1CCc2ncc(C(F)(F)F)cc2C1` [compound 237, 6-(6-chloro-5-methyl-2-(trifluoromethyl)pyrimidin-4-yl)-3-(trifluoromethyl)-5,6,7,8-tetrahydro-1,6-naphthyridine], the Emax at 30 µM was 73%. Moreover, the 50% effective concentration (EC50) under setting [1] was 2960 nM.

Regarding `Cc1cnccc1Nc1cnc2c(c1)CN(c1nnc(C#N)c(C)c1C)CC2` [Example 618, 4,5-dimethyl-6-(3-((3-methylpyridin-4-yl)amino)-7,8-dihydro-1,6-naphthyridin-6(5)-yl)pyridazine-3-carbonitrile], the maximum response (Emax) at 30 µM turned out to be 74%. The EC50 under setting [1] was determined as 391 nM.

`Cc1c(C#N)nnc(N2CCc3ncc(-c4cnn(CCN(C)C)c4)cc3C2)c1C` [Example 324, 6-(3-(1-(2-(dimethylamino)ethyl)-1H-pyrazol-4-yl)-7,8-dihydro-1,6-naphthyridin-6(5H)-yl)-4,5-dimethylpyridazine-3-carbonitrile]: the Emax at 30 µM was 70%. For the same compound, the concentration for a half-maximal effect (EC50) under setting [1] was determined as 1070 nM.

These data come from patent publication US20250230155A1 (Vanderbilt University, priority 2021, published 2025).
